Assay results as given in PMC6514686, “Tri-Cyclic Nucleobase Analogs and Their Ribosides as Substrates of Purine-Nucleoside Phosphorylases. II Guanine and Isoguanine Derivatives” (Molecules, 2019).
Where two headings read alike, the source gives them in different places.

Legend:
E. coli PNP [1] = target: T1, E. coli PNP (Escherichia coli, UniProt P0ABP8); assay: phosphorolysis of nucleosides in phosphate buffer by E. coli PNP; assay type: biochemical; conditions: for phosphorolysis (in words): 50 mM phosphate buffer, pH 6.5
T1 construct: made in house; host or cells: E. coli
Description: (§1) For kinetic analyses, enzymatic ribosylation reactions were carried out in 1 mL cuvettes (pathlength 4 mm) in ~50 mM HEPES buffer, pH 7.3, using ca. 0.5 mM R1P as a ribose source. On a larger scale, reactions were run in Eppendorf tubes, volume 2–3 mL, using either R1P or 7-methylguanosine as ribose sources. Phosphorolysis reactions were run in 50 mM phosphate buffer, pH 7.0 or 6.5. Data were analyzed by standard methods (see Supplementary Materials).

calf PNP [2] = target: T2, calf PNP (Bos taurus, UniProt P55859); assay: phosphorolysis of nucleosides in phosphate buffer by calf PNP; assay type: biochemical
T2 construct: made in house; host or cells: E. coli
T2 sequence (P55859 1-289): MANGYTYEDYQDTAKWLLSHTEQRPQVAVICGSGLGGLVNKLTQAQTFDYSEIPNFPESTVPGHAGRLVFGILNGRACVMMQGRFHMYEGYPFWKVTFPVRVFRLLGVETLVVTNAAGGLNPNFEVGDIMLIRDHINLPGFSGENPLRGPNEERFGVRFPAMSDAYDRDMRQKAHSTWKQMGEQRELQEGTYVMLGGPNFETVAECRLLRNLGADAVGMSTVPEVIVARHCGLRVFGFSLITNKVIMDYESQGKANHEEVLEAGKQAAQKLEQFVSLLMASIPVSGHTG
Description: as §1

[3] = target: T3, E.coli PNP-wt (purine-nucleoside phosphorylase) (Escherichia coli, UniProt P0ABP8); assay: enzymatic ribosylation of nucleobase analogs by α-D-ribose-1-phosphate, E. coli PNP wild type; assay type: biochemical; conditions: for Vmax (relative): relative to Vmax of guanine ribosylation under the same conditions (=100), 40 mM HEPES, pH 7, error ~10%
T3 construct: made in house; host or cells: E. coli
T3 sequence (P0ABP8 2-239 limits assumed): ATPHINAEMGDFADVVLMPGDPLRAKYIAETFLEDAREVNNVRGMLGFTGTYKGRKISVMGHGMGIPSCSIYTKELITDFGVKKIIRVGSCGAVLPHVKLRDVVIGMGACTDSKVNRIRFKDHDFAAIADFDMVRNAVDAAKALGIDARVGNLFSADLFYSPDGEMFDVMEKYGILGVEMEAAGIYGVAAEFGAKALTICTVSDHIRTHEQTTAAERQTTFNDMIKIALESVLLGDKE
Description: as §1, with “For kinetic analyses, enzymatic ribosylation reactions were carried out in 1 mL cuvettes (pathlength 4 mm) in ~50 mM HEPES buffer, pH 7.3, using ca.” left out
(§2) Recombinant E. coli and calf spleen PNPs as well as their mutated forms were expressed in E. coli and purified according to the procedures described earlier.

E.coli PNP-mutantD204N = target: T4, E.coli PNP-mutantD204N (Escherichia coli, UniProt P0ABP8, D205N); assay: enzymatic ribosylation by α-D-ribose-1-phosphate, E. coli PNP D204N mutant; assay type: biochemical; conditions: for Vmax (relative): relative to Vmax of guanine ribosylation under the same conditions (=100), 40 mM HEPES, pH 7, error ~10%
T4 construct: made in house; host or cells: E. coli
T4 sequence (P0ABP8 2-239 D205N): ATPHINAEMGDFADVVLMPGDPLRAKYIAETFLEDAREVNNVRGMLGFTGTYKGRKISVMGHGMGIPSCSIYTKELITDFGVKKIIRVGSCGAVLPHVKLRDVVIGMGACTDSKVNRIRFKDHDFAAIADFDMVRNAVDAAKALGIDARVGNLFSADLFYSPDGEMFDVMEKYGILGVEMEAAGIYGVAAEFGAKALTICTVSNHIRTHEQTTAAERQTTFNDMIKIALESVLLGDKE
Description: as §1, §2

[4] = target: T5, calf PNP-wt (calf spleen purine-nucleoside phosphorylase) (Bos taurus, UniProt P55859); assay: enzymatic ribosylation by α-D-ribose-1-phosphate, calf PNP wild type; assay type: biochemical; conditions: for Vmax (relative): relative to Vmax of guanine ribosylation under the same conditions (=100), 40 mM HEPES, pH 7, error ~10%
T5 construct: made in house; host or cells: E. coli
T5 sequence (P55859 1-289): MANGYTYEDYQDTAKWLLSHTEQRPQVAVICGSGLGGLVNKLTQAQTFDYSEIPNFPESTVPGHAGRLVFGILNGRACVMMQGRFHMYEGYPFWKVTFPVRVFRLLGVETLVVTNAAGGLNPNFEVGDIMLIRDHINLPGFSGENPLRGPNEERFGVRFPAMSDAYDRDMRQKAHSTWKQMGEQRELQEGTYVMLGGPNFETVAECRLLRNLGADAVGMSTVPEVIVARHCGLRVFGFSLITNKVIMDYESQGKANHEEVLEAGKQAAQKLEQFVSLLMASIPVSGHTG
Description: as §1, §2

calf PNP-mutantN243D = target: T6, calf PNP-mutantN243D (Bos taurus, UniProt P55859, N243D); assay: enzymatic ribosylation by α-D-ribose-1-phosphate, calf PNP N243D mutant; assay type: biochemical
T6 construct: made in house; host or cells: E. coli
T6 sequence (P55859 1-289 N243D): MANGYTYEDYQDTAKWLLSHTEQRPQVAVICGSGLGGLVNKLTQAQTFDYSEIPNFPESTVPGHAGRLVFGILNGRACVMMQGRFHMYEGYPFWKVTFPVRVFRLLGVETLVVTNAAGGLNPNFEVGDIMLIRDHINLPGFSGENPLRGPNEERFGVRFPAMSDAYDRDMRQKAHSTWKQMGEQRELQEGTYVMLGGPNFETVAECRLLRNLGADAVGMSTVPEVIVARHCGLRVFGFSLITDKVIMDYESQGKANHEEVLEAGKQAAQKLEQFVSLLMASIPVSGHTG
Description: as §1, §2

[5] = ionization constants (spectrophotometric titrations)
E. coli PNP [6] = target: T1, E. coli PNP; set-up: method as in PMID 29376769; conditions: cited from earlier work
calf PNP [7] = target: T2, calf PNP; set-up: method as in PMID 29376769; conditions: cited from earlier work
E. coli PNP [8] = target: T1, E. coli PNP; assay: inhibition of guanine ribosylation catalyzed by E. coli PNP; assay type: biochemical
Description: We conclude that inability of the enzyme to ribosylate (2) is not due to geometric hindrance, but rather should be ascribed to unfavorable energetic factors, in accordance with previous reports about the relative instability of the glycosidic bond in this compound [23].
(§3) N^2,3-etheno-O^6-methylguanine (3) effectively competes with guanine in the ribosylation process, acting as quasi inhibitor of the E. coli PNP, with estimated Kiapp value 7.5 ± 0.8 μM (competitive model; average of 3 determinations), in agreement with the Km value, estimated from kinetic data (see the previous paragraph).
as §1

calf PNP [9] = target: T2, calf PNP; assay: inhibition of guanine ribosylation catalyzed by calf PNP; assay type: biochemical; conditions: similar conditions as with E. coli PNP
Description: as §3, §1

[10] = substrate: O=c1c2[nH]cnc2nc2[nH]ccn12; assay: enzymatic ribosylation of nucleobase analogs by α-D-ribose-1-phosphate, E. coli PNP wild type; assay type: biochemical; conditions: other: ribosylation, 40 mM HEPES buffer, pH 7, α-D-ribose-1-phosphate, standard errors ~15%
Description: as §1, with “For kinetic analyses, enzymatic ribosylation reactions were carried out in 1 mL cuvettes (pathlength 4 mm) in ~50 mM HEPES buffer, pH 7.3, using ca.” left out
as §2

[11] = 40 mM HEPES buffer, pH 7, α-D-ribose-1-phosphate
[12] = aqueous, pKa ±0.1, lower (basic) value, protonation to the cation
[13] = aqueous, pKa ±0.1, upper (acidic) value, deprotonation to the monoanion
[14] = no reaction traces even with 10-fold higher enzyme concentrations

1,N^6-etheno-N7-β-D-ribosylisoguanosine [N7-riboside (6)]
phosphorolysis (in words) (E. coli PNP [1]): Even more rapid

1,N^6-etheno-N^6-β-D-ribosylisoguanosine [N^6-riboside (7)]
phosphorolysis (in words) (E. coli PNP [1]): much more rapidly | phosphorolysis (in words) (calf PNP [2]): only slowly deribosylated

1,N^6-ethenoisoguanine
Km ([3]; 50 mM HEPS buffer, pH 7.3, R1P 0.5 mM, 25 °C (Figure S3), read-out: Km from double-reciprocal plots): 98 µM | Vmax (relative) [3]: ~24 | Km ([3]; ribosylation, 40 mM HEPES buffer, pH 7, α-D-ribose-1-phosphate, standard errors ~15%, read-out: Km): 98 µM | Vmax (relative) (E.coli PNP-mutantD204N): >5 | Vmax (relative) [4]: 1.6 | Km ([4]; ribosylation, 40 mM HEPES buffer, pH 7, α-D-ribose-1-phosphate, standard errors ~15%): ~160 µM | Approximate Product Ratio: N9: N7-riboside: N^6-riboside (calf PNP-mutantN243D; [11]): predominantly N^6 | Vmax (relative) (calf PNP-mutantN243D; relative to Vmax of guanine ribosylation under the same conditions (=100), 40 mM HEPES, pH 7, error ~10%): ~1 | pKa ±0.1, lower (basic) value ([5]; aqueous, protonation to the cation): 3.5 | fitted pKa, lower (basic) value ([5]; spectrophotometric titration, pH 2.9 to 5.5, ±0.2 (Figure S2)): 3.5 | fitted pKa, upper (acidic) value ([5]; spectrophotometric titration, pH 6.25 to 11.5, ±0.2 (Figure S2)): 8.1 | pH of probable second deprotonation ([5]; spectrophotometric titrations): ~ 13

O=c1c2nc[nH]c2[nH]c2nccn12 [1,N^2-ethenoguanine, 5,9-dihydro-9-oximidazo{1,2-a}purine]
Approximate Product Ratio: N9: N7-riboside: N^6-riboside [3, 11]: predominantly N9 | Vmax (relative) [3]: 18 | share of the one main product in the reaction mixture (HPLC) ([3]; ribosylation, product identical to the chemically generated nucleoside): > 95% | Approximate Product Ratio: N9: N7-riboside: N^6-riboside (E.coli PNP-mutantD204N; [11]): predominantly N9 | Vmax (relative) (E.coli PNP-mutantD204N): >15 | Approximate Product Ratio: N9: N7-riboside: N^6-riboside [4, 11]: predominantly N9 | ribosylation rate, fold slower than the ribosylation of guanine ([4]; pH 7.3, HEPES buffer, 25 °C): ca. 100 fold | Vmax (relative) [4]: <0.5 | ribosylation rate, fold slower than the ribosylation of guanine (calf PNP-mutantN243D; pH 7.3, HEPES buffer, 25 °C): ca. 100 fold | pKa [5, 12]: ~2 | pKa [5, 13]: ~9.5

O=c1c2ncn([C@@H]3O[C@H](CO)[C@@H](O)[C@H]3O)c2nc2[nH]ccn12 [1,N^2-ethenoguanosine]
phosphorolysis (in words) (calf PNP [2]): no marked phosphorolysis | pKa [5, 13]: 8.8

OC[C@H]1O[C@@H](n2cnc3c2ncn2ccnc32)[C@H](O)[C@@H]1O [1,N^6-ethenoadenosine]
phosphorolysis (in words) (E. coli PNP [6]): rapidly phosphorolysed | phosphorolysis (in words) (calf PNP [7]): resistant

O=c1[nH]c2c(ncn2[C@@H]2O[C@H](CO)[C@@H](O)[C@H]2O)c2nccn12 [N9-riboside (5), 1,N^6-etheno-N9-β-D-ribosylisoguanosine]
phosphorolysis (in words) (E. coli PNP [1]): fairly rapid | phosphorolysis (in words) (calf PNP [2]): not phosphorolysed | pKa [5, 12]: 2.4 | pKa [5, 13]: 7.1

COc1nc2nccn2c2[nH]cnc12 [N^2,3-etheno-O^6-methylguanine]
Vmax (relative) [3]: ~0.3 | Vmax (relative) [4]: <0.1 | Ki (E. coli PNP [8]; competition with guanine in ribosylation, competitive model, average of 3 determinations, read-out: estimated Kiapp): 7.5 ± 0.8 µM | inhibition of guanine ribosylation (in words) (calf PNP [9]): no such inhibition is observed | pKa [5, 12]: ~3.5 | pKa [5, 13]: ~9

O=c1nc2[nH]ccn2c2nc[nH]c12 [N^2,3-ethenoguanine]
substrate activity in ribosylation (in words) [3, 14]: not a substrate | Vmax (relative) [3]: <0.1 | substrate activity in ribosylation (in words) [4, 14]: not a substrate | Vmax (relative) [4]: <0.1 | Ki (E. coli PNP [8]; guanine as substrate of the ribosylation reaction, possibly competitive inhibition, read-out: estimated Ki): 38 µM | pKa [5, 12]: ~2.5 | pKa [5, 13]: 8.8

Nc1nc(=O)[nH]c2c1ncn2[C@@H]1O[C@H](CO)[C@@H](O)[C@H]1O [isoguanosine, reference compound]
Vmax of phosphorolysis, fold lower than that for guanosine (E. coli PNP [1]; data not shown): ca. 40 fold | phosphorolysis (in words) (calf PNP [2]): did not see any such reaction

B1: E.coli PNP-wt (purine-nucleoside phosphorylase) (Escherichia coli K-12) (protein)
chain: ATPHINAEMGDFADVVLMPGDPLRAKYIAETFLEDAREVNNVRGMLGFTGTYKGRKISVMGHGMGIPSCSIYTKELITDFGVKKIIRVGSCGAVLPHVKLRDVVIGMGACTDSKVNRIRFKDHDFAAIADFDMVRNAVDAAKALGIDARVGNLFSADLFYSPDGEMFDVMEKYGILGVEMEAAGIYGVAAEFGAKALTICTVSDHIRTHEQTTAAERQTTFNDMIKIALESVLLGDKE
notes: made in house; host or cells: E. coli
Km [10]: 48 µM
